In this assay the target is T1, human Farnesoid X Receptor (FXR) ligand binding domain (GST-FXR LBD) (Homo sapiens, UniProt Q96RI1).
T1 construct: purchased Invitrogen
T1 sequence (Q96RI1 193-472 isoform Q96RI1-2): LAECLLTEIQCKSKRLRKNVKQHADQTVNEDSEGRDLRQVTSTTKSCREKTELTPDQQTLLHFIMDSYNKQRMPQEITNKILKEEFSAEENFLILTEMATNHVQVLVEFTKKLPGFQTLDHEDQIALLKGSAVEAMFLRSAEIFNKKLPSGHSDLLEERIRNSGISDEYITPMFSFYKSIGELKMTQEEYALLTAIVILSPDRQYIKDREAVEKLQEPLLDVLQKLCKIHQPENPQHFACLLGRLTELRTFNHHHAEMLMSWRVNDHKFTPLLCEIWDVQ
The experiment in a line: Human GST-FXR LBD co-activator interaction assay (FXR HTRF assay). It is filed as biochemical. The conditions noted are these: ligand-dependent interaction of GST-FXR LBD with biotin-labeled SRC-1 peptide, response relative to GW4064, read-out: FXR coactivator interaction assay (HTRF). An excerpt:
Human GST-FXR LBD Co-Activator Interaction Assay
The FXR HTRF assay is a biochemical assay measuring the interaction between FXR and a coactivator protein (SRC1). The ligand-induced interaction with a coactivator protein is a critical step in transcriptional activation by FXR. Thus, this is an assay designed to measure FXR agonist activity of the test compounds.
Recombinant human Farnesoid X Receptor (FXR) ligand binding domain (amino acids 193-472) fused to glutathione S-transferase (GST) purified protein (GST-FXR LBD) was purchased (Invitrogen). The ligand-dependent interaction between GST-FXR LBD and a peptide derived from Steroid Receptor Coactivator-1 (SRC-1) was monitored by Fluorescence Resonance Energy Transfer (FRET). […] Test compounds (in DMSO solution) and detection reagents (anti-GST-Cryptate labeled antibody and Streptavidin-XL665 conjugate; CisBio) were added in assay buffer containing 50 mM KF. Plates are incubated at room temperature in the dark for 2.5 hrs before reading on an Envision (PerkinElmer) at 665 nm and 590 nm. The HTRF assay results were calculated from the 665 nm/590 nm ratio (ratio=(A665 nm/A590 nm)×10^4) and expressed in Delta F %=(Ratiosample−Rationegative)/Rationegative×100.
A negative control (without Streptavidin-XL665) was run with each assay and represented the background fluorescence. A reference FXR agonist, (E)-3-(2-chloro-4-((3-(2,6-dichlorophenyl)-5-isopropylisoxazol-4-yl)methoxy)styryl)benzoic acid (Compound GW4064), was included in each experiment as positive control. The efficacy of each test compound was compared to that of GW4064. At each concentration, the relative activity of the test compound was expressed as Response %=(Rsample−RDMSO)/(Rpositive−RDMSO), where Rsample is the HTRF response (expressed in Delta F %) for the test compound, Rpositive is the maximal response for GW4064 at saturating concentrations, and RDMSO is the response for DMSO control. The EC50 values were calculated using GraphPad Prism (GraphPad Software) using non-linear regression curve fit (log(agonist) vs. response—variable slope (four parameters)).

Regarding `Cn1nc(C(=O)N(CC(=O)NCC2(O)CC2)Cc2ccccc2F)c2c1-c1cc(Cl)ccc1OC2` [Compound 48, 2-(1-{8-chloro-1-methyl-1H,4H-chromeno[4,3-c]pyrazol-3-yl}-N-[(2-fluorophenyl)methyl]formamido)-N-[(1-hydroxycyclopropyl)methyl]acetamide], the EC50 was found to be 75 nM.
The figure for `Cn1nc(C(=O)N(CC(=O)NC2CCC(O)CC2)Cc2ccccc2F)c2c1-c1cc(Cl)ccc1OC2` (stereo not drawn) [Compound 38, 2-(1-{8-chloro-1-methyl-1H,4H-chromeno[4,3-c]pyrazol-3-yl}-N-[(2-fluorophenyl)methyl]formamido)-N-(4-hydroxycyclohexyl)acetamide] is 717 nM; for `CC(C)NC(=O)CN(Cc1cc(F)cc(F)c1)C(=O)c1nn(C)c2c1COc1ccc(Br)cc1-2` [Compound 13, 2-(1-{8-bromo-1-methyl-1H,4H-chromeno[4,3-c]pyrazol-3-yl}-N-[(3,5-difluorophenyl)methyl]formamido)-N-(propan-2-yl)acetamide] it is 34 nM.
As for `CC(C)NC(=O)CN(Cc1c(F)cccc1F)C(=O)c1nn(C)c2c1COc1ccc(Cl)cc1-2` [Compound 35, 2-(1-{8-chloro-1-methyl-1H,4H-chromeno[4,3-c]pyrazol-3-yl}-N-[(2,6-difluorophenyl)methyl]formamido)-N-(propan-2-yl)acetamide], the EC50 came out at 366 nM.
On to `Cn1nc(C(=O)N(CCNc2nccs2)Cc2cccc(F)c2)c2c1-c1cc(Cl)ccc1OC2` [Compound 76, 8-chloro-N-[(3-fluorophenyl)methyl]-1-methyl-N-{2-[(1,3-thiazol-2-yl)amino]ethyl}-1H,4H-chromeno[4,3-c]pyrazole-3-carboxamide], for which the EC50 came to 259 nM.
Under `Cn1nc(C(=O)N(CC(=O)Nc2ccc(C(=O)N3CCOCC3)cc2)Cc2ccccc2F)c2c1-c1cc(Cl)ccc1OC2` [Compound 20, 2-(1-{8-chloro-1-methyl-1H,4H-chromeno[4,3-c]pyrazol-3-yl}-N-[(2-fluorophenyl)methyl]formamido)-N-[4-(morpholine-4-carbonyl)phenyl]acetamide] stands 246 nM; under `CC(C)NC(=O)CN(Cc1ccccc1)C(=O)c1nn(C)c2c1COc1ccc(Br)cc1-2` [Compound 25, 2-(N-benzyl-1-{8-bromo-1-methyl-1H,4H-chromeno[4,3-c]pyrazol-3-yl}formamido)-N (propan-2-yl)acetamide], 32 nM.
The figure for `CC(C)C(=O)NCCN(Cc1ccccc1)C(=O)c1nn(C)c2c1COc1ccc(Br)cc1-2` [Compound 68, N-[2-(N-benzyl-1-{8-bromo-1-methyl-1H,4H-chromeno[4,3-c]pyrazol-3-yl}formamido)ethyl]-2-methylpropanamide] is 22 nM; for `Cn1nc(C(=O)N(CC(=O)NCCF)Cc2cccc(F)c2)c2c1-c1cc(Cl)ccc1OC2` [Compound 9, 2-(1-{8-chloro-1-methyl-1H,4H-chromeno[4,3-c]pyrazol-3-yl}-N-[(3-fluorophenyl)methyl]formamido)-N-(2-fluoroethyl)acetamide] it is 3 nM; for `Cn1nc(C(=O)N(CC(=O)NCC(C)(O)C(F)(F)F)Cc2ccccc2F)c2c1-c1cc(Cl)ccc1OC2` (stereo not drawn) [Compound 45, 2-(1-{8-chloro-1-methyl-1H,4H-chromeno[4,3-c]pyrazol-3-yl}-N-[(2-fluorophenyl)methyl]formamido)-N-(3,3,3-trifluoro-2-hydroxy-2-methylpropyl)acetamide] it is 33 nM.
The figure for `Cn1nc(C(=O)N(CC(=O)NC2CC2)Cc2ccccc2F)c2c1-c1cc(Cl)ccc1OC2` [Compound 8, 2-(1-{8-chloro-1-methyl-1H,4H-chromeno[4,3-c]pyrazol-3-yl}-N-[(2-fluorophenyl)methyl]formamido)-N-cyclopropylacetamide] is 31 nM; for `CC(C)C(=O)NCCN(Cc1cccc(F)c1)C(=O)c1nn(C)c2c1COc1ccc(Br)cc1-2` [Compound 62, 8-bromo-N-(3-fluorobenzyl)-N-(2-isobutyramidoethyl)-1-methyl-1,4-dihydrochromeno[4,3-c]pyrazole-3-carboxamide] it is 18 nM.
As to `Cn1nc(C(=O)N(CC(=O)NCC2CC2)Cc2ccccc2F)c2c1-c1cc(F)ccc1OC2` [Compound 65, N-(2-((cyclopropylmethyl)amino)-2-oxoethyl)-8-fluoro-N-(2-fluorobenzyl)-1-methyl-1,4-dihydrochromeno[4,3-c]pyrazole-3-carboxamide], the EC50 came to 12 nM.
As to `Cn1nc(C(=O)N(CC(=O)NCC2CC2)CC2CCCCC2)c2c1-c1cc(Cl)ccc1OC2` [Compound 74, 2-(1-{8-chloro-1-methyl-1H,4H-chromeno[4,3-c]pyrazol-3-yl}-N-(cyclohexylmethyl)formamido)-N-(cyclopropylmethyl)acetamide], the EC50 turned out to be 96 nM.
The figure for `Cn1nc(C(=O)N(CC(=O)NC2CC2)Cc2cccc(F)c2F)c2c1-c1cc(Cl)ccc1OC2` [Compound 22, 2-(1-{8-chloro-1-methyl-1H,4H-chromeno[4,3-c]pyrazol-3-yl}-N-[(2,3-difluorophenyl)methyl]formamido)-N-cyclopropylacetamide] is 60 nM.
Under `Cn1nc(C(=O)N(CC(=O)NCC2CC2)CC2CCCC2)c2c1-c1cc(Cl)ccc1OC2` [Compound 75, 2-(1-{8-chloro-1-methyl-1H,4H-chromeno[4,3-c]pyrazol-3-yl}-N-(cyclopentylmethyl)formamido)-N-(cyclopropylmethyl)acetamide] stands 87 nM; under `CC(C)NC(=O)CN(Cc1cc(F)ccc1F)C(=O)c1nn(C)c2c1COc1ccc(Cl)cc1-2` [Compound 26, 2-(1-{8-chloro-1-methyl-1H,4H-chromeno[4,3-c]pyrazol-3-yl}-N-[(2,5-difluorophenyl)methyl]formamido)-N-(propan-2-yl)acetamide], 84 nM; under `Cn1nc(C(=O)N(CC(=O)NC2CCC2)Cc2ccccc2F)c2c1-c1cc(Cl)ccc1OC2` [Compound 19, 2-(1-{8-chloro-1-methyl-1H,4H-chromeno[4,3-c]pyrazol-3-yl}-N-[(2-fluorophenyl)methyl]formamido)-N-cyclobutylacetamide], 49 nM.
Under `Cn1nc(C(=O)N(CC(=O)NCC2CC2)Cc2ccccc2F)c2c1-c1cc(Br)ccc1OC2(C)C` [Compound 78, 2-(1-{8-bromo-1,4,4-trimethyl-1H,4H-chromeno[4,3-c]pyrazol-3-yl}-N-[(2-fluorophenyl)methyl]formamido)-N-(cyclopropylmethyl)acetamide] stands 2230 nM; under `Cn1nc(C(=O)N(CC(=O)NCCC(F)(F)F)Cc2ccccc2F)c2c1-c1cc(Cl)ccc1OC2` [Compound 4, 2-(1-{8-chloro-1-methyl-1H,4H-chromeno[4,3-c]pyrazol-3-yl}-N-[(2-fluorophenyl)methyl]formamido)-N-(3,3,3-trifluoropropyl)acetamide], 11 nM.
With `Cn1nc(C(=O)N(CC(=O)NC2CCCC2)Cc2ccccc2F)c2c1-c1cc(Cl)ccc1OC2` [Compound 18, 2-(1-{8-chloro-1-methyl-1H,4H-chromeno[4,3-c]pyrazol-3-yl}-N-[(2-fluorophenyl)methyl]formamido)-N-cyclopentylacetamide], the EC50 was determined as 64 nM.
Under `CNS(=O)(=O)c1ccc(CN(Cc2ccccc2)C(=O)c2nn(C)c3c2COc2ccc(Cl)cc2-3)cc1` [Compound 54, N-benzyl-8-chloro-1-methyl-N-{[4-(methylsulfamoyl)phenyl]methyl}-1H,4H-chromeno[4,3-c]pyrazole-3-carboxamide] stands 266 nM; under `Cn1nc(C(=O)N(CC(=O)NCCF)Cc2cccc(F)c2F)c2c1-c1cc(Cl)ccc1OC2` [Compound 33, 2-(1-{8-chloro-1-methyl-1H,4H-chromeno[4,3-c]pyrazol-3-yl}-N-[(2,3-difluorophenyl)methyl]formamido)-N-(2-fluoroethyl)acetamide], 62 nM; under `Cn1nc(C(=O)N(Cc2ccccc2)Cc2ccc(S(C)(=O)=O)cc2)c2c1-c1cc(Cl)ccc1OC2` [Compound 56, N-benzyl-8-chloro-N-[(4-methanesulfonylphenyl)methyl]-1-methyl-1H,4H-chromeno[4,3-c]pyrazole-3-carboxamide], 605 nM.

(Values after patent US10351576B2, “Fused tricyclic pyrazole derivatives useful for farnesoid X receptors” (NOVARTIS AG, priority 2015, dated 2019).)
